Experimental data from ChEMBL document CHEMBL1201862, “PubChem BioAssay data set” (2004).
Active and inactive are the calls of the source. For most assays here, no stated cut-off is given here; in the data, actives have a measured EC50 and inactives only a lower limit.

What was measured:
[1] = target: T1, Zinc finger protein mex-5 (Caenorhabditis elegans, UniProt Q9XUB2); assay: potency of MEX-5 RNA-binding blockers – biochemical, C. elegans, fluorescence polarization, dose response (AID 1960)
T1 sequence (Q9XUB2 whole entry): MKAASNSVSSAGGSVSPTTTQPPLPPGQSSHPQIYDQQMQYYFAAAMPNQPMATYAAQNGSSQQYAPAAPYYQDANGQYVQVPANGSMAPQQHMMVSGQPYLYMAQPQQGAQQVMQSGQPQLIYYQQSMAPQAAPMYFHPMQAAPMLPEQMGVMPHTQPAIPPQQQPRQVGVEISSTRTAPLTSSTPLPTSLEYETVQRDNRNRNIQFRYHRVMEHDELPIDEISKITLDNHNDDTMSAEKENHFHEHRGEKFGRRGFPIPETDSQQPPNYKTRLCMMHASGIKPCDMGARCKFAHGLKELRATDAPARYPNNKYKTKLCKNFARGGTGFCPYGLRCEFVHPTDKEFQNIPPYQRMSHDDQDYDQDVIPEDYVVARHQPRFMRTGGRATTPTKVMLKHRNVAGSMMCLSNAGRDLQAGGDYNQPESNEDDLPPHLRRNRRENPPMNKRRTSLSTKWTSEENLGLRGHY

[2] = target: T2, RNA-binding protein pos-1 (Caenorhabditis elegans, UniProt G5EF15); assay: disruptors of C. elegans POS-1 RNA interaction – biochemical, fluorescence polarization, dose response (AID 1964);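 further: purified POS-1 fused to maltose binding protein made in E. coli; potency of compounds blocking POS-1 binding to fluorescent RNA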
T2 sequence (G5EF15 whole entry): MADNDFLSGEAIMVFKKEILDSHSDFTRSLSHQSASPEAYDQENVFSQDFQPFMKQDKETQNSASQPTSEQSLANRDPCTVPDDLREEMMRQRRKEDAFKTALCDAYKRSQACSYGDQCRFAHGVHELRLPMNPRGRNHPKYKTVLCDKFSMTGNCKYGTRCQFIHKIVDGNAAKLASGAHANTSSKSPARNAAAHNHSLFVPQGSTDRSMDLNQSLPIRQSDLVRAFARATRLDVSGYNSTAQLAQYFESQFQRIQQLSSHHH

[3] = target: T3, Replicative DNA helicase DnaB (Mycobacterium tuberculosis, UniProt P9WMR3); assay: DnaB intein splicing inhibitors, dose response, biochemical, cell-free fluorescence (AID 449749); assay type: functional
T3 sequence (P9WMR3 whole entry): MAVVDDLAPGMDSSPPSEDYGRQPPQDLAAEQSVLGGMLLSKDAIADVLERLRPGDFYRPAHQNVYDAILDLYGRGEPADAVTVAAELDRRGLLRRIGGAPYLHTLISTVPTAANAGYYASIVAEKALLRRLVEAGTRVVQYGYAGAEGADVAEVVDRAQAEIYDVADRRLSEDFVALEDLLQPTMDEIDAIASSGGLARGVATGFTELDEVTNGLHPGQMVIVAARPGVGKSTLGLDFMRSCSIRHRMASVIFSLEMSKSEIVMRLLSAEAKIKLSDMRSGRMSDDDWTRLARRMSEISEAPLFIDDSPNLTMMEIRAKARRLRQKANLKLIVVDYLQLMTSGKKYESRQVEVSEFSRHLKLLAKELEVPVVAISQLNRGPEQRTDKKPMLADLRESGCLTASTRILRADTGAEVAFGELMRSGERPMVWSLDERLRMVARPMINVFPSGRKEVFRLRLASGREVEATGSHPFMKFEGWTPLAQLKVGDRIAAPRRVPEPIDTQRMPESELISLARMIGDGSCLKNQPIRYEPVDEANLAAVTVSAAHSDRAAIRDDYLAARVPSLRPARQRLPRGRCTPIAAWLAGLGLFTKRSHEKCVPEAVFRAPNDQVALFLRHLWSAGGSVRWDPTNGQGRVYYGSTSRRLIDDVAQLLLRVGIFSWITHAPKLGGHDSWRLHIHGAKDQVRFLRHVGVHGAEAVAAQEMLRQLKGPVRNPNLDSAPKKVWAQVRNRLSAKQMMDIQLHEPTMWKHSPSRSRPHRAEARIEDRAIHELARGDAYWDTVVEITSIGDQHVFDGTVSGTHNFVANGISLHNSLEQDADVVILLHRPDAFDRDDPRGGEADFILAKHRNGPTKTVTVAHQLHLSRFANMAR

[4] = target: T4, Protein RecA (Mycobacterium tuberculosis, UniProt P9WHJ3); assay: Fluorescence Cell-Free Homogeneous Dose Retest to Identify Inhibitors of RecA-Intein Splicing Activity. [Related pubchem assays (depositor defined):AID2097, AID2223, AID489010, AID492950]; assay type: functional
T4 sequence (P9WHJ3 whole entry): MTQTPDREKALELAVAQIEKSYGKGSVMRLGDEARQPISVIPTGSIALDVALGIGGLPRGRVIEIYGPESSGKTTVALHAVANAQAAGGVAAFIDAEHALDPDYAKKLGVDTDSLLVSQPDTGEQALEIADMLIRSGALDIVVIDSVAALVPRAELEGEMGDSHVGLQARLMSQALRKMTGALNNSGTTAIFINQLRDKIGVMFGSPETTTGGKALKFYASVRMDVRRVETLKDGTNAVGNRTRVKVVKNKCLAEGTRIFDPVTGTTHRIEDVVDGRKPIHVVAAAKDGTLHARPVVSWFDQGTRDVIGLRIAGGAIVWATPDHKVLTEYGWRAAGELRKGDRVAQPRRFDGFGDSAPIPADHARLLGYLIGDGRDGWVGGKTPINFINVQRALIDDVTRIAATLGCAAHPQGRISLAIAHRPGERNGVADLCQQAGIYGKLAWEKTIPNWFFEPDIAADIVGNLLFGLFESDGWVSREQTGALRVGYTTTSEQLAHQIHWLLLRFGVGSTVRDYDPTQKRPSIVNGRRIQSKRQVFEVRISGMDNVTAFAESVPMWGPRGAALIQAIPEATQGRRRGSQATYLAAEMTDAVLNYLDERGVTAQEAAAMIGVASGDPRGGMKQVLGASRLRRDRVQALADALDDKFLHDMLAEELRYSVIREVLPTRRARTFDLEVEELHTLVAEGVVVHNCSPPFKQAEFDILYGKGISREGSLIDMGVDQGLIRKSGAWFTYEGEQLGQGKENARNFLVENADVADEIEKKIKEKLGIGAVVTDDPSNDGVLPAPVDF

[5] = target: T5, Heat shock factor protein 1 (Mus musculus, UniProt P38532); assay: decrease of HSF1-responsive luciferase luminescence – cell-based, NIH3T3, dose retest, confirmation (AID 2382); assay type: functional;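 further: NIH3T3 fibroblasts with HSF1-driven luciferase reporter stressed by proteasome inhibitor MG132; luminescence from HSF1-driven luciferase expression after 8 hours of MG132 stress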
T5 sequence (P38532 whole entry): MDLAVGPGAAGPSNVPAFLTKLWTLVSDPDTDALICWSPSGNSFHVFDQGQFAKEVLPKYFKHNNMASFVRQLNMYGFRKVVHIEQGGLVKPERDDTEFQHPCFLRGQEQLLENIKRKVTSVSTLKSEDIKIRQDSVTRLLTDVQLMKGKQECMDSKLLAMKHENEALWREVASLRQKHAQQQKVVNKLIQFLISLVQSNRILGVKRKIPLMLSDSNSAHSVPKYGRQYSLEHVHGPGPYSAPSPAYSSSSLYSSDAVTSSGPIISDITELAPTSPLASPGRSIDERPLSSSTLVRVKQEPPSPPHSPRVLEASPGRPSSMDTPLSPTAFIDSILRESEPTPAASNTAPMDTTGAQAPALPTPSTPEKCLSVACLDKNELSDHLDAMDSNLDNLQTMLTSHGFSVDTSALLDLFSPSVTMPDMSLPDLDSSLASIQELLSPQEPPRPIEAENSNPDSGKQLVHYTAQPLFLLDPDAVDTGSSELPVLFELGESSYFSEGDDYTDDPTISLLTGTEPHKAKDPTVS

[6] = viability of uninfected HEp-2 cells – cell-based, HTS, cytotoxicity control for RSV inhibitor project, dose response (AID 2410); assay type: functional; conditions: human respiratory syncytial virus
[7] = target: T6, Corticotropin-releasing factor receptor 2/Corticotropin-releasing factor-binding protein (Homo sapiens, UniProt P24387+Q13324); assay: activators of CRF receptor 2 with binding protein – uHTS hits, confirmation (AID 602473); assay type: functional; conditions: read-out: EC50_Mean
T6 sequence (Q13324 whole entry): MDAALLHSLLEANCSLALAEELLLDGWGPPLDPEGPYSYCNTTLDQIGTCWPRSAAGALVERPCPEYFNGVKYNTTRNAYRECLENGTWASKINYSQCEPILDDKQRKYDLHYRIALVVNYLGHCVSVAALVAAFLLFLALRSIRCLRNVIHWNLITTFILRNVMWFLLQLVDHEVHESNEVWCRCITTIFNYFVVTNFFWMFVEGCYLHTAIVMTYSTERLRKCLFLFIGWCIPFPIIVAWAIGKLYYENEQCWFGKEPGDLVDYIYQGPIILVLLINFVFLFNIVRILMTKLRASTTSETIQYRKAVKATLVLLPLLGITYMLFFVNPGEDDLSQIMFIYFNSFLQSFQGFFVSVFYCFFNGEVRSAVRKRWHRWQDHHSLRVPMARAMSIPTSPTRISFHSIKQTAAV
T6 sequence (P24387 whole entry): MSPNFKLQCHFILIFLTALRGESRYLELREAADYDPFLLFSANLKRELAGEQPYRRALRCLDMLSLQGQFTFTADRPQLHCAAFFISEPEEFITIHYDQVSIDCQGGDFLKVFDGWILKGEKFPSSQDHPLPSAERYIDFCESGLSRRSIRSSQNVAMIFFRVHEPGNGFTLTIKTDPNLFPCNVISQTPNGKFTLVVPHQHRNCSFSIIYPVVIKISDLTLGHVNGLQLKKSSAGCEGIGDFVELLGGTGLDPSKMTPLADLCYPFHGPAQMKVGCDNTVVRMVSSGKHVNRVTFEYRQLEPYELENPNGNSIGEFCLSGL

[8] = Luminescence Cell-Based Dose Response HTS to Identify Activators of Luciferase Translation or Activity in H4 […] Cells. [Related pubchem assays: 1829 (Project Summary), 1814 (Primary HTS)]; assay type: functional
[9] = Luminescence Cell-Based Dose Confirmation HTS to Identify Activators of 5'UTR Stem-Loop Driven Alpha-Synuclein mRNA Translation in H4 Neuroglioblastoma Cells. [Related pubchem assays: 1829 (Project Summary), 1814 (Primary HTS)]; assay type: functional
[10] = system: H4; assay: Luminescence Cell-Based Dose Response HTS to Identify Activators of 5'UTR Stem-Loop Driven Prion Protein mRNA Translation in H4 Neuroglioblastoma Cells. [Related pubchem assays: 1829 (Project Summary), 1814 (Primary HTS)]; assay type: functional; conditions: Homo sapiens
[11] = target: Paired box protein Pax-8 (Homo sapiens, UniProt Q06710); assay: PAX8 transcriptional activity inhibition in RMG-I – RMG-I cells, luciferase, cherry-pick, dose response (AID 687027); assay type: functional, cell-based;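 further: luciferase reporter driven by Pax8 target thyroperoxidase promoter measured by SteadyGlo luminescence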
Paired box protein Pax-8, sequence (Q06710 whole entry): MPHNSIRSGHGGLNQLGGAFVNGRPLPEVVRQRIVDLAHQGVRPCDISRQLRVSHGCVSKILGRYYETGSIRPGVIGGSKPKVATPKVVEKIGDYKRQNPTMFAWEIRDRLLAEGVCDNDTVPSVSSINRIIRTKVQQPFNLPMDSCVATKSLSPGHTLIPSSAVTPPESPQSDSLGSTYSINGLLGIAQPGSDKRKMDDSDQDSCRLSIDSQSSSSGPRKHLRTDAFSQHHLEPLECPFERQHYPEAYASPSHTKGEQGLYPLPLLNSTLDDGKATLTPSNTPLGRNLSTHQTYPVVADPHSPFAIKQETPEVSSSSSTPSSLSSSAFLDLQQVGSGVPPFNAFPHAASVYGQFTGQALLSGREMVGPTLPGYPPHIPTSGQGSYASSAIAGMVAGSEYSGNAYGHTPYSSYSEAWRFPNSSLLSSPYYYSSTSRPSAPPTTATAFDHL

Row | Structure (SMILES) | EC50 [1] | EC50 [2] | EC50 [5] | other results
1 | CCCCC1=CC2=C(c3ccco3)C(=O)C(C)(OC(=O)c3ccc(OC)cc3)C(=O)C2=CN1C1CC1 (centres undefined) | > 300 µM (not active) | > 300 µM (not active) |  | 
2 | CCc1cc(=O)oc2cc(C)cc(OC(C)C(=O)O)c12 (centres undefined) | > 300 µM (not active) | > 300 µM (not active) |  | 
3 | N#CC(C#N)=NNc1ccc(S(=O)(=O)N2CCCC2)cc1 |  |  |  | AC50 [3]: 6.9 µM (active); EC50 [4]: 23.9 µM (active)
4 | CC1=NN(c2ccccc2)C(=O)C1N=Nc1ccc(S(N)(=O)=O)cc1 (centres undefined) |  |  | > 195 µM (not active) | 
5 | O=C(CSc1nnc(COc2ccc3c(c2)CCCC3)o1)Nc1ccc(F)cc1 |  |  | > 195 µM (not active) | 
6 | O=C(N1CCOCC1)N1CCC(n2nnc3cc(F)ccc32)CC1 | 46.7 µM (inconclusive) | 39.2 µM (active) |  | 
7 | COc1cc(SC)ccc1C(=O)NCC1CCCO1 (centres undefined) |  |  | > 195 µM (not active) | 
8 | COC(CN(C(=O)CCl)C(C(=O)NC1CCCCC1)c1ccc(C)cc1)OC (centres undefined) |  |  |  | AC50 [3]: > 380 µM (inactive); EC50 [4]: 7 µM (active)
9 | CCN(CC)c1ccc(C=C2C(=O)OC(C)(C(C)(C)C)OC2=O)cc1 (centres undefined) | > 300 µM (inconclusive) | > 300 µM (inconclusive) |  | 
10 | CC(c1ccc(O)cc1)(c1ccc(O)cc1)c1ccc(CCBr)cc1 |  |  |  | AC50 [3]: 46.4 µM (active); EC50 [4]: 9.45 µM (active); CC50 [6]: 17.4 µM (active)
11 | CCOC(=O)c1cnc2ccc(C)cc2c1Sc1ccccc1 |  |  |  | AC50 [3]: 5.63 µM (active); EC50 [4]: 5.87 µM (active)
12 | CC1(C)CC(=O)C2=C(C1)N(Cc1ccccc1)C(=O)C2(NC(=O)C(C)(C)C)C(F)(F)F (centres undefined) |  |  | > 195 µM (not active) | 
13 | COc1ccc(Nc2nc3ccccc3nc2NS(=O)(=O)c2cccs2)cc1 | 34.8 µM (active) | > 300 µM (inconclusive) |  | 
14 | Cc1cc(N2CCCCC2)nc(N)n1 |  |  |  | EC50 [7]: 6.28 µM (active)
15 | COc1cc2c(cc1/C=C1/NC(=O)N(c3ccccc3)C1=O)OCO2 | > 300 µM (not active) | > 300 µM (not active) |  | 
16 | Cc1cc(-n2c(C)cc(C(=O)CSc3nc4ccccc4c(=O)n3Cc3ccco3)c2C)no1 |  |  |  | EC50 [7]: > 53 µM (inactive)
17 | Cc1c(C(=O)Nc2ccc(F)cc2)sc2ncn(CC(=O)N3CCCCC3)c(=O)c12 |  |  | > 195 µM (not active) | 
18 | COc1ccc(Cl)cc1NC(=O)CSc1nc2ccsc2c(=O)n1CC1CCC(C(=O)O)CC1 (centres undefined) |  |  | > 195 µM (not active) | CC50 [6]: > 50 µM (active)
19 | CCOC(=O)c1ccc(NC(=O)C2C3C=CC(O3)C2C(=O)O)cc1 (centres undefined) |  |  | > 195 µM (not active) | EC50 [8]: > 120 µM (not active); EC50 [9]: > 60 µM (not active); EC50 [10]: > 120 µM (not active)
20 | Cc1ccc(S(=O)(=O)N(C)C[C@H]2Oc3ccc(NC(=O)Nc4ccc(C(F)(F)F)cc4)cc3CC(=O)N([C@@H](C)CO)C[C@H]2C)cc1 |  |  |  | AC50 [11]: 9.45 µM (active)
21 | CCOc1ccc(/C=N/NC(=O)c2ccc(Cn3cc([N+](=O)[O-])cn3)o2)cc1 |  |  | > 195 µM (not active) | 
22 | Cc1ccc(/C=N/NC(=O)c2nnn(-c3nonc3N)c2CN(C)C2CCCCC2)cc1 |  |  | > 195 µM (not active) | 
23 | Cc1ccc(NCC(=O)N/N=C/c2ccc(C(=O)O)cc2)cc1 | > 300 µM (not active) | > 300 µM (not active) |  | 
